Measured values as given in ChEMBL document CHEMBL2434923, “Synthesis of quinoidal molecules: strategies towards bioactive compounds with an emphasis on lapachones” (Eur J Med Chem, 2013).

What was measured:
Trypanosoma cruzi [1] = test: Antitrypanosomal activity against Trypanosoma cruzi; format: functional, organism-based
KB = test: Cytotoxicity against human KB cells; format: functional, cell-based
[2] = Cytotoxicity against human HepG cells; format: functional, cell-based
HeLa = test: Cytotoxicity against human HeLa cells; format: functional, cell-based
Trypanosoma cruzi [3] = test: Antitrypanosomal activity against Trypanosoma cruzi after 24 hrs; format: functional, organism-based

CC1(C)CCc2c(c3ccccc3c3nc(-c4ccccc4)[nH]c23)O1
IC50 (Trypanosoma cruzi [1]): 39.4 µM

CC1(C)CCc2c(c3ccccc3c3nc(-c4c[nH]c5ccccc45)[nH]c23)O1
IC50 (Trypanosoma cruzi [1]): 15.4 µM

O=C1C(=O)c2ccccc2C2=C1CCO2
IC50 (KB): 0.92 µM
IC50 [2]: 0.92 µM
IC50 (HeLa): 0.92 µM

Cc1ccc(-c2nc3c([nH]2)c2c(c4ccccc43)OC(C)(C)CC2)cc1
IC50 (Trypanosoma cruzi [1]): 15.5 µM

CC1(C)CCc2c(c3ccccc3c3nc(-c4ccccc4)oc23)O1
IC50 (Trypanosoma cruzi [3]): 284 µM

CC1(C)CCc2c(c3ccccc3c3ncoc23)O1
IC50 (Trypanosoma cruzi [3]): 325 µM

O=C1C(=O)c2ccccc2C2=C1CCCO2
IC50 (KB): 0.92 µM
IC50 [2]: 0.92 µM
IC50 (HeLa): 0.92 µM
